# Where two headings read alike, the source gives them in different places.
# What was measured:
# MCF-7/ADR cells [1] = assay: Toxic effect of each derivative and VER alone (cell survival); format: cell-based; conditions: Homo sapiens, NCI/ADR-RES, 2 h incubation, read-out: cell survival ratio; for viability at 5 µM: mean (SD); for viability at 10 µM / viability at 25 µM / viability at 50 µM / viability at 100 µM: mean
# Experimental: The effect of eight FA derivatives on cytotoxicity was studied in P-gp overexpressed human breast cancer cells (MCF-7/ADR) using the SRB assay. The details of the cell culture condition and the assay method were presented in our previous reports. […] The assay was performed in triplicate. […]
# Data are presented as mean ± SD.
# The numerical data were represented the cell survival ratio.
# MCF-7/ADR cells [2] = assay: [3H]-daunomycin efflux study; format: cell-based, human
# Experimental: (§1) The methods for [^3H]-DNM accumulation and efflux studies were reported previously. […] The experiments were performed in triplicate.
# (§2) [^3H]-DNM uptake and efflux were determined after the incubation with each derivative (100 µM) for 2 h and 1 h, respectively. […] Control represents accumulation or efflux of tritium labeled DNM alone.
# MCF-7/ADR cells [3] = assay: [3H]-daunomycin accumulation study; format: cell-based, human; conditions: 100 µM, 2 h incubation, mean ± SD, triplicate
# Experimental: as §1, §2
# human P-gp membranes = target: T1, human P-gp membranes (Homo sapiens, UniProt P08183); assay: Human P-glycoprotein ATPase activity assay; format: biochemical; conditions: for P-gp ATPase activity, ratio of blank (control): human P-gp membranes
# T1 construct: purchased
# T1 sequence (P08183 whole entry): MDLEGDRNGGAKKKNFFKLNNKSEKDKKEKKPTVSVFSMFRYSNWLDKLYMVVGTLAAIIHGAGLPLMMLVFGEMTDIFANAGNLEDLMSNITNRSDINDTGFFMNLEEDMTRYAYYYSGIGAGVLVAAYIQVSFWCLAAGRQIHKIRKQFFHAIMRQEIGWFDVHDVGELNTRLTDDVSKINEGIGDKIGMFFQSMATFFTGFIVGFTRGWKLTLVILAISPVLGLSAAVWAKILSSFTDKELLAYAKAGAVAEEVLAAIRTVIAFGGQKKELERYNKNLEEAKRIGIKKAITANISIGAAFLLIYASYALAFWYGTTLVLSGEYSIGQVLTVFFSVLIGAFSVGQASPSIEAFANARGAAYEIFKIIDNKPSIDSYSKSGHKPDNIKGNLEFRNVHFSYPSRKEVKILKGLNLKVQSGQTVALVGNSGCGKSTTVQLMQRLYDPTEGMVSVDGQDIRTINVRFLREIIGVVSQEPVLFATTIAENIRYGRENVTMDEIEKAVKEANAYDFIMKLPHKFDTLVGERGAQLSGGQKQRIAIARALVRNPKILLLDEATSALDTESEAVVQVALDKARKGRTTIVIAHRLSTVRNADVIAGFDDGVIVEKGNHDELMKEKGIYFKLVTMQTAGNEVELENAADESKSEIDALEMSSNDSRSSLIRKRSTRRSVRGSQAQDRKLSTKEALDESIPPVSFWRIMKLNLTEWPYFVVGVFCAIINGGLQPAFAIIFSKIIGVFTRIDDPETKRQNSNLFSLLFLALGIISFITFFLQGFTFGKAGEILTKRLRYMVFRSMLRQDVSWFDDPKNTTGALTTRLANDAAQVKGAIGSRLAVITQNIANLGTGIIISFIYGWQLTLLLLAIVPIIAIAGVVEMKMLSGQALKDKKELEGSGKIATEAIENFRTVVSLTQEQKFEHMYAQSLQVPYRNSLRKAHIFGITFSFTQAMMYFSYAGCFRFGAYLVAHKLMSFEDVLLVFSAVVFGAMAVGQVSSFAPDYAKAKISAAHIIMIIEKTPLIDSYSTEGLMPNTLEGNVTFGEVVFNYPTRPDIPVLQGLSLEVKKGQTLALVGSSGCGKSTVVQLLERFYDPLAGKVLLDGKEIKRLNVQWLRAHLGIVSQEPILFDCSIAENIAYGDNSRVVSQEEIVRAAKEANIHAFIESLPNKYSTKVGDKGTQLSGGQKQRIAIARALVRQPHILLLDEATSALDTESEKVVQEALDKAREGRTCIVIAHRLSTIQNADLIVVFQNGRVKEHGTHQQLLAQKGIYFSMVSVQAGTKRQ
# Experimental: The ATPase activities were expressed as the rate of phosphate release per milligram of membrane protein and converted to the relative ratio versus the control. This assay was performed in duplicate.
# MCF-7/ADR cells [4] = assay: Cytotoxicity of DNM with FA derivatives, SRB assay; format: cell-based, human; conditions: for IC50 of DNM as fraction of negative control (DNM alone) value: derivative 100 µM
# Experimental: The effect of eight FA derivatives on cytotoxicity was studied in P-gp overexpressed human breast cancer cells (MCF-7/ADR) using the SRB assay. The details of the cell culture condition and the assay method were presented in our previous reports. […] The assay was performed in triplicate.
# [5] = Pharmacokinetic study of oral PTX alone or co-administered with compound 5c; format: in vivo, male Sprague-Dawley rats
# Experimental: The pharmacokinetic (PK) study was performed using male Sprague-Dawley rats (6 weeks old and 200 g–235 g) commercially available from Orient Bio (Seongnam, Korea). All animal procedures were approved by the Institutional Animal Care and Use Committee of Ewha Womans University (No. 2012-01-019, approved on 3 April 2012), Republic of Korea.
# Rats were divided into the following 4 groups: Oral administration (PO) of PTX (25 mg/kg) alone and co-administration of PTX (25 mg/kg) with compound 5c at three different doses (0.5, 2 and 5 mg/kg). Each group had 5 rats except for a group of 2 mg/kg dose (n = 4). The blood samples (0.2 mL) were collected from the common carotid artery at 0, 0.25, 0.5, 1, 2, 3, 4, 6, 8, 10 and 24 h.
# PTX concentrations in rat plasma were analyzed by Agilent HP1100 series system using a Capcell-pak C18 MG120 column (3 mm × 250 mm, 5 µm, Shiseido, Tokyo, Japan). The samples were eluted with mobile phase composed of acetonitrile and 0.1% phosphoric acid (1/1, v/v) at a flow rate of 0.5 mL/min for 30 min and detected at a wavelength of 227 nm. The HPLC-UV method was validated by FDA guidelines as follows: Specificity (PTX: 14.8 min; internal standard: 26.7 min), linearity over the concentration range between 0.01 and 10 µg/mL, lower limit of quantification (0.01 µg/mL) and intra-/inter-day precision and accuracy (2.4–9.1% and 92.1–102.7%, respectively). All other details for sample preparation and quantification of PTX concentrations in rat plasma were reported previously.
# The following PK parameters of PTX after oral single dosing to rats were estimated by non-compartmental analysis using WinNonlin® Professional version 5.2 software (Pharsight Corporation, Mountain View, CA, USA): The area under the plasma concentration-time curve from 0 h to infinity (AUCinf), elimination half-life (t1/2), apparent volume of distribution after oral single dosing (Vz/F), oral clearance (Cl/F), maximum plasma concentration (Cmax) and the time required to reach Cmax (Tmax). The relative bioavailability (RB, %) of PTX was calculated with the following formula: RB ( % )=AUCinf po co−administraion/AUCinf po control×100
# AUCinf po control is the AUCinf obtained from oral single administration of PTX alone, and AUCinf po co-administration is the AUCinf obtained from oral single co-administration of PTX and compound 5c.
# [6] = parameters: method as in PMID 24373826; conditions: rats; cited from earlier work
# [7] = parameters: method as in PMID 24373826; conditions: humans; cited from earlier work
# [8] = 100 µM, 1 h incubation, mean ± SD, triplicate
Structure (SMILES),viability at 5 µM (MCF-7/ADR cells [1]),viability at 10 µM (MCF-7/ADR cells [1]),viability at 25 µM (MCF-7/ADR cells [1]),viability at 50 µM (MCF-7/ADR cells [1]),viability at 100 µM (MCF-7/ADR cells [1]),melting point,"P-gp ATPase activity, ratio of blank (control) (human P-gp membranes; 20 μM)","P-gp ATPase activity, ratio of blank (control) (human P-gp membranes; 50 μM)","P-gp ATPase activity, ratio of blank (control) (human P-gp membranes; 100 μM)",IC50 of DNM as fraction of negative control (DNM alone) value (MCF-7/ADR cells [4]),other results
"CCCOc1ccc(/C=C/C(=O)N2CCCCC2)cc1OC [Compound 5a, (E)-3-(3-methoxy-4-propoxyphenyl)-1-(piperidin-1-yl)prop-2-en-1-one]",96.5%,94.1%,96%,93.8%,87.8%,91 to 92 °C,–,–,–,–,–
"COc1cc(/C=C/C(=O)N2CCCCC2)ccc1OCC(C)C [Compound 5b, (E)-3-(4-isobutoxy-3-methoxyphenyl)-1-(piperidin-1-yl)prop-2-en-1-one]",101%,97.8%,96.1%,96.1%,92%,96 to 97 °C,–,–,–,–,–
"COc1cc(/C=C/C(=O)N2CCCCC2)ccc1OCc1ccccc1 [Compound 5c, (E)-3-(4-benzyloxy-3-methoxyphenyl)-1-(piperidin-1-yl)prop-2-en-1-one]",101%,98.5%,96.1%,96.9%,87.6%,–,1.54,2.48,4.02,about 1/5,"efflux of [3H]-DNM (MCF-7/ADR cells [2]; [8]): 43.1 ± 4.6%; accumulation of [3H]-DNM (MCF-7/ADR cells [3]): 438.4 ± 4.9%; Concentration dependence of P-gp ATPase activity (human P-gp membranes; 20, 50 and 100 μM): stably increased ATPase activity in a concentration-dependent manner; Cl/F of PTX ([5]; PTX 25 mg/kg PO co-administered with compound 5c 2 mg/kg, rats): 4.10 ± 1.53 L/h; Cl/F of PTX ([5]; PTX 25 mg/kg PO co-administered with compound 5c 5 mg/kg, rats): 4.53 ± 1.04 L/h; Effect on PK parameters of PTX ([5]; compound 5c 0.5 mg/kg co-administered, compared to PO control (PTX alone)): did not alter any PK parameters of PTX; Improvement of the BA of PTX ([5]; compound 5c 5 mg/kg co-administered with PTX in rats): approximately twofold"
"CCCOc1ccc(/C=C/C(=O)N(C)C)cc1OC [Compound 5d, (E)-3-(3-methoxy-4-propoxyphenyl)-N,N-dimethylacrylamide]",102%,97.8%,97.1%,97.1%,96.2%,108 to 109 °C,–,–,–,–,–
"COc1cc(/C=C/C(=O)N(C)C)ccc1OCC(C)C [Compound 5e, (E)-3-(4-isobutoxy-3-methoxyphenyl)-N,N-dimethylacrylamide]",100%,99.4%,95.8%,95%,94.8%,109 to 111 °C,–,–,–,–,efflux of [3H]-DNM (MCF-7/ADR cells [2]; [8]): 39.9 ± 3.8%; accumulation of [3H]-DNM (MCF-7/ADR cells [3]): 382.1 ± 20.4%
"CCCOc1ccc(/C=C/C(=O)N(C)Cc2ccccc2)cc1OC [Compound 5f, (E)-N-benzyl-3-(3-methoxy-4-propoxyphenyl)-N-methylacrylamide]",98.9%,99.4%,100%,96.9%,92.8%,–,2.85,3.12,3.35,about 1/5,–
"COc1cc(/C=C/C(=O)N(C)C)ccc1OCc1ccccc1 [Compound 5g, (E)-3-(4-benzyloxy-3-methoxyphenyl)-N,N-dimethylacrylamide]",104%,102%,100%,99.3%,102%,135 to 136 °C,1.26,1.77,5.19,about 1/5,–
"CCCOc1ccc(/C=C/C(=O)N2CCC(O)(c3ccccc3)CC2)cc1OC [Compound 5h, (E)-1-(4-hydroxy-4-phenylpiperidin-1-yl)-3-(3-methoxy-4-propoxyphenyl) prop-2-en-1-one]",103%,99.2%,94.6%,89.4%,89.6%,163 to 164 °C,3.99,2.69,2.79,about 1/5,efflux of [3H]-DNM (MCF-7/ADR cells [2]; [8]): 43.3 ± 0.9%; accumulation of [3H]-DNM (MCF-7/ADR cells [3]): 426.1 ± 26.2%
"COc1cccc2c1C(=O)c1c(O)c3c(c(O)c1C2=O)C[C@@](O)(C(C)=O)C[C@@H]3O[C@H]1C[C@H](N)[C@H](O)[C@H](C)O1 [DNM, daunomycin, reference compound]",–,–,–,–,–,–,–,–,–,–,"efflux of [3H]-DNM (MCF-7/ADR cells [2]; control: tritium labeled DNM alone, 1 h): 63.0 ± 3.3%; IC50 (MCF-7/ADR cells [4]; Homo sapiens, NCI/ADR-RES, negative control: DNM alone, incubation): 31.7 µM"
"COc1cc(/C=C/C(=O)O)ccc1O [FA, Ferulic acid]",–,–,–,–,–,–,–,–,–,–,Time within which FA is absorbed in the intestine [6]: 5 to 15 min; Time within which FA is absorbed in the intestine [7]: ≤ 30 min
"CC(=O)O[C@H]1C(=O)[C@@]2(C)[C@H]([C@H](OC(=O)c3ccccc3)[C@]3(O)C[C@H](OC(=O)[C@H](O)[C@@H](NC(=O)c4ccccc4)c4ccccc4)C(C)=C1C3(C)C)[C@]1(OC(C)=O)CO[C@@H]1C[C@@H]2O [PTX, Paclitaxel]",–,–,–,–,–,–,–,–,–,–,"Cl/F of PTX ([5]; PTX 25 mg/kg PO alone, rats): 8.22 ± 1.84 L/h; Cmax of PTX ([5]; PTX 25 mg/kg PO alone, rats): 0.187 ± 0.041 µg/mL; AUC(0-inf) ([5]; male, Sprague-Dawley, rat, plasma, PTX 25 mg/kg PO alone, rats, read-out: AUCinf of PTX): 0.773 ± 0.169 µg·h/mL; Vd/F ([5]; male, Sprague-Dawley, rat, plasma, PTX 25 mg/kg PO alone, rats, read-out: Vz/F of PTX): 35.1 ± 16.8 L; half-life ([5]; male, Sprague-Dawley, rat, plasma, PTX 25 mg/kg PO alone, rats, read-out: t1/2 of PTX (converted)): 2.8 ± 0.86 h"

# Source: publication PMC6920777, “Pharmacokinetic Alteration of Paclitaxel by Ferulic Acid Derivative” (Pharmaceutics, 2019)
